We go through 23 compounds from ChEMBL document CHEMBL1136595, “Oximino-piperidino-piperidine-based CCR5 antagonists. Part 2: synthesis, SAR and biological evaluation of symmetrical heteroaryl carboxamides” (Bioorg Med Chem Lett, 2003).

Data set [1] concerns the target C-C chemokine receptor type 5 (Homo sapiens, UniProt P51681). As to the kind of experiment: Inhibition of [125I]RANTES binding to CCR5 receptor.
The test system of data set [2] is Human immunodeficiency virus 1. As to the kind of experiment: Inhibition of HIV-1 (ADA) entry into U-87 (human glioblastoma) cells. It counts as functional, organism-based. To be noted: Human immunodeficiency virus 1, U-87 MG.
The nature of data set [3]: Area under curve after peroral administration at 10 mg/kg in rat for 0-6 h. It counts as ADME, organism-based. Further details: time < 6 hr, dose 10 mg/kg, route oral. Particulars: in vivo, po.

C-C chemokine receptor type 5, sequence (P51681 whole entry): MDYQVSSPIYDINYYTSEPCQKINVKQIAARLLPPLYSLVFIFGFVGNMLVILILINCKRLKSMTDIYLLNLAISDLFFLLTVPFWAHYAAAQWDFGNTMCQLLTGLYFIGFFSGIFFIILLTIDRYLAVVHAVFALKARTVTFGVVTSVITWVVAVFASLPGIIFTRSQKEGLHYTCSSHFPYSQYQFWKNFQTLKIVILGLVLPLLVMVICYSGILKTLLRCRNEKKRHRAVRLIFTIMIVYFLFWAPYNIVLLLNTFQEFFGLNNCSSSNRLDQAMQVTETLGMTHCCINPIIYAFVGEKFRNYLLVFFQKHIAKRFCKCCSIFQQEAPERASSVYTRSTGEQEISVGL

As usually defined, the Ki is a measure of affinity in units of concentration, obtained from inhibition or displacement. Take `CCO/N=C(/c1ccc(Br)cc1)C1CCN(C2(C)CCN(C(=O)c3c(C)nc(C4CC4)nc3C)CC2)CC1`: the inhibition constant (Ki) in data set [1] was 25 nM.

Consider `CCO/N=C(/c1ccc(Br)cc1)C1CCN(C2(C)CCN(C(=O)c3c(C)nc(C(C)C)nc3C)CC2)CC1`, for which the Ki in data set [1] is 43 nM.

With `CCO/N=C(/c1ccc(Br)cc1)C1CCN(C2(C)CCN(C(=O)c3c(C)nc(NC(C)=O)nc3C)CC2)CC1`, in data set [1], the Ki came to 60 nM.

The IC50 is the concentration that gives 50% inhibition. Higher therefore signals weaker potency. As a reminder, the AUC is concentration integrated over time. Compound `CCCO/N=C(/c1ccc(Br)cc1)C1CCN(C2(C)CCN(C(=O)c3c(C)ncnc3C)CC2)CC1` registered a half-inhibitory concentration (IC50) in data set [2] of 0.89 nM. In data set [3], this compound gave an AUC at 6 h of 1600 ng·h/mL. Also, in data set [1], the Ki was 2 nM.

`CCO/N=C(/c1ccc(Br)cc1)C1CCN(C2(C)CCN(C(=O)c3c(C)nc(SC)nc3C)CC2)CC1` came in with an AUC at 6 h in data set [3] of 400 ng·h/mL. Moreover, in data set [1], the inhibitory constant (Ki) was 1.3 nM.

In the case of `CCO/N=C(/c1ccc(Br)cc1)C1CCN(C2(C)CCN(C(=O)c3c(C)nc(C(F)(F)F)nc3C)CC2)CC1`, in data set [2], the half-inhibitory concentration (IC50) was determined as 0.26 nM. The area under the curve (AUC) at 6 h in data set [3] amounted to 2000 ng·h/mL. In data set [1], the affinity, expressed as Ki, was 3.2 nM.

Take `Cc1ncnc(C)c1C(=O)N1CCC(C)(N2CCC(/C(=N\OC(C)C)c3ccc(Br)cc3)CC2)CC1`: in data set [2], the concentration for half-maximal inhibition (IC50) amounted to 0.28 nM. Moreover, the AUC at 6 h in data set [3] was determined as 2400 ng·h/mL. For the same compound, in data set [1], the Ki was 3.3 nM.

As for `Cc1ncnc(C)c1C(=O)N1CCC(C)(N2CCC(/C(=N\OCC(F)(F)F)c3ccc(Br)cc3)CC2)CC1`, in data set [2], the 50% inhibitory concentration (IC50) turned out to be 3.8 nM. Further, the area under the curve (AUC) at 6 h in data set [3] was 6900 ng·h/mL. In addition, affinity in data set [1] was put at a Ki of 14 nM.

Take `CCO/N=C(/c1ccc(Br)cc1)C1CCN(C2(C)CCN(C(=O)c3c(C)nc(N)nc3C)CC2)CC1`: the IC50 in data set [2] stood at 0.35 nM. Also, the AUC at 6 h in data set [3] is 3100 ng·h/mL. This compound also had an inhibition constant Ki in data set [1] of 5.7 nM.

As for `CO/N=C(\c1ccc(Br)cc1)C1CCN(C2(C)CCN(C(=O)c3c(C)ncnc3C)CC2)CC1`, in data set [2], the IC50 was 1.83 nM. The same compound had an AUC at 6 h in data set [3] of 4100 ng·h/mL. In data set [1], this compound had an inhibition constant Ki of 4.7 nM.

`CCO/N=C(\c1ccc(Br)cc1)C1CCN(C2(C)CCN(C(=O)c3c(C)c[n+]([O-])cc3C)CC2)CC1` returned a half-maximal inhibitory concentration (IC50) in data set [2] of 0.4 nM. Moreover, the AUC at 6 h in data set [3] was 1600 ng·h/mL. In addition, the inhibition constant (Ki) in data set [1] was 8.8 nM.

Turning to `CCO/N=C(\c1ccc(Br)cc1)C1CCN(C2(C)CCN(C(=O)c3c(Br)c[n+]([O-])cc3Br)CC2)CC1`, half-maximal inhibition in data set [2] (IC50) required 1.24 nM. The same compound displayed an area under the curve (AUC) at 6 h in data set [3] of 4400 ng·h/mL. The compound further showed a Ki in data set [1] of 0.7 nM.

`CCO/N=C(\c1ccc(Br)cc1)C1CCN(C2(C)CCN(C(=O)c3c(C)cncc3C)CC2)CC1`: the AUC at 6 h in data set [3] is 1300 ng·h/mL. In addition, in data set [1], the Ki turned out to be 2.3 nM.

Turning to `CCO/N=C(\c1ccc(Br)cc1)C1CCN(C2(C)CCN(C(=O)c3c(Cl)c[n+]([O-])cc3Cl)CC2)CC1`, the IC50 in data set [2] is 0.15 nM. Further, in data set [3], the AUC at 6 h amounted to 3900 ng·h/mL. Further, the Ki in data set [1] turned out to be 1.2 nM.

For `CCO/N=C(/c1ccc(Br)cc1)C1CCN(C2(C)CCN(C(=O)c3c(C)nc(C)nc3C)CC2)CC1`, the half-maximal inhibitory concentration (IC50) in data set [2] is 0.93 nM. In data set [3], this compound gave an exposure (AUC) at 6 h of 2700 ng·h/mL. This compound also gave a Ki in data set [1] of 2.1 nM.

Consider `Cc1ncnc(C)c1C(=O)N1CCC(C)(N2CCC(/C(=N\OCC(C)C)c3ccc(Br)cc3)CC2)CC1`, for which the 50% inhibitory concentration (IC50) in data set [2] came to 1.17 nM. For the same compound, the area under the curve (AUC) at 6 h in data set [3] was 600 ng·h/mL. The Ki in data set [1] amounted to 8.1 nM.

The compound `CCO/N=C(/c1ccc(Br)cc1)C1CCN(C2(C)CCN(C(=O)c3c(C)nc(NS(C)(=O)=O)nc3C)CC2)CC1` registered a Ki in data set [1] of 315 nM.

Compound `CCO/N=C(/c1ccc(Br)cc1)C1CCN(C2(C)CCN(C(=O)c3c(C)nc(OC)nc3C)CC2)CC1` returned a concentration for half-maximal inhibition (IC50) in data set [2] of 0.13 nM. In data set [3], this compound registered an AUC at 6 h of 1800 ng·h/mL. The affinity in data set [1], expressed as Ki, was 5.3 nM.

The compound `Cc1ncnc(C)c1C(=O)N1CCC(C)(N2CCC(/C(=N\OCC3CC3)c3ccc(Br)cc3)CC2)CC1` yielded an AUC at 6 h in data set [3] of 3700 ng·h/mL. In data set [1], this compound showed a Ki of 11 nM.

Regarding `CCO/N=C(\c1ccc(Br)cc1)C1CCN(C2(C)CCN(C(=O)c3c(Br)cncc3Br)CC2)CC1`, in data set [2], it took 1.04 nM to reach half-maximal inhibition (IC50). Besides, in data set [3], the AUC at 6 h turned out to be 500 ng·h/mL.

`CCO/N=C(\c1ccc(Br)cc1)C1CCN(C2(C)CCN(C(=O)c3c(Cl)cncc3Cl)CC2)CC1` had an IC50 in data set [2] of 0.69 nM. The compound further showed an area under the curve (AUC) at 6 h in data set [3] of 500 ng·h/mL.

As for `CCO/N=C(\c1ccc(Br)cc1)C1CCN(C2(C)CCN(C(=O)c3c(C)ncnc3C)CC2)CC1`, the midpoint of inhibition in data set [2], the IC50, lay at 0.36 nM. The AUC at 6 h in data set [3] was found to be 3100 ng·h/mL. Also, the affinity in data set [1] corresponds to a Ki of 2.2 nM.

In data set [2], `COC[C@@H](c1ccc(C(F)(F)F)cc1)N1CCN(C2(C)CCN(C(=O)c3c(C)ncnc3C)CC2)C[C@@H]1C` [VICRIVIROC] registered an IC50 of 0.6 nM. In addition, the exposure (AUC) at 6 h in data set [3] was 6500 ng·h/mL.
